This note sets out measurements from ChEMBL document CHEMBL4033669, “Guanylthiourea derivatives as potential antimalarial agents: Synthesis, in vivo and molecular modelling studies” (Eur J Med Chem, 2017).

Active and inactive are the calls of the source. The rule behind the calls is not given here. A value given as a limit tells only on which side of the number the result lay.

Data set [1] deals with Plasmodium berghei. The data set is described as follows: Antimalarial activity against Plasmodium berghei in Swiss mouse inoculated with parasite infected red blood cells assessed as mean survival time at 100 mg/kg/day, ip administered 4 hrs post infection on day 0, 1, 2 , 3. Format: functional.
In the next data set the test system is Mus musculus. The experiment in a line: Toxicity in Swiss mouse inoculated with parasite infected red blood cells assessed as mortality at 100 mg/kg/day, ip administered 4 hrs post infection on day 0, 1, 2 , 3 measured on day 4. Format: organism-based. Particulars: in vivo.
For data set [2], the system named is Plasmodium berghei. The data set is described as follows: Antimalarial activity against Plasmodium berghei in Swiss mouse inoculated with parasite infected red blood cells assessed as reduction in parasitemia at 100 mg/kg/day, ip administered 4 hrs post infection on day 0, 1, 2 , 3 measured on day 4 post infection by giemsa staining based microscopic method. Type of data set: functional, organism-based.

The nature of data set [3]: Apparent permeability across apical to basolateral side in human Caco2 cells at 50 uM after 90 mins by LC-MS/MS method. Particulars: Caco-2. Format: ADME, cell-based. In general terms: Caco-2 cells form a polarised layer with tight junctions and transporters.
Data set [4] can be described thus: Oral bioavailability in Sprague-Dawley rat at 10 mg/kg, administered via gavage. Type of data set: ADME, organism-based. Particulars: in vivo.
For data set [5], the system named is Plasmodium berghei. The data set is described as follows: Antimalarial activity against Plasmodium berghei in Swiss mouse inoculated with parasite infected red blood cells assessed as reduction in parasitemia at 100 mg/kg/day, ip administered 4 hrs post infection on day 0, 1, 2 , 3 measured on day 7 post infection by giemsa staining based microscopic method. Format: functional, organism-based.

As for `N=C(N)/N=C(\N)SCc1cccc(CS/C(N)=N/C(=N)N)c1`, the MST in the data set on Plasmodium berghei [1] is 20 days.

`N=C(N)/N=C(\N)SCc1cccc(Cl)c1`: in the data set with Mus musculus, the Activity result is listed as “Toxic”. Also, in the data set with Plasmodium berghei [2], the result was inactive.

With `N=C(N)NC(=N)SCc1cccc(C(F)(F)F)c1`, the Activity entry in the data set with Mus musculus is “Toxic”. Moreover, in the data set on Plasmodium berghei [2], the result was inactive.

On to `CC1(C)N=C(N)N=C(N)N1OCCCOc1cc(Cl)c(Cl)cc1Cl`, for which the Papp A→B (as a rule, the apparent permeability from the apical to the basolateral side of a cell layer) at 1.5 h, 50 µM in data set [3] was under 0.12 ×10⁻⁶ cm/s. Besides, in data set [4], the bioavailability (commonly dose-corrected exposure relative to a reference, in per cent) was under 1%.

As to `N=C(N)/N=C(\N)SCc1ccc(F)cc1`, the Activity entry in the data set on Mus musculus is reported as “Toxic”. Moreover, the outcome in the data set with Plasmodium berghei [2] was inactive.

For the molecule `N#Cc1ccc(CSC(=N)NC(=N)N)cc1`, in the data set with Mus musculus, the Activity result was “Toxic”.

As for `N=C(N)/N=C(\N)SCCOc1nc2ccccc2s1`, the result with Plasmodium berghei [5] was Active.

In the case of `N=C(N)/N=C(\N)SCCCOc1c(Cl)cc(Cl)cc1Cl`, the MST in the data set with Plasmodium berghei [1] was 24 days.

Consider `N=C(N)/N=C(\N)SCCCOc1ccc(I)cc1`, for which, in the data set with Plasmodium berghei [1], the MST came out at 26 days.

Take `N=C(N=C(N)N)SCc1cccc(I)c1`: the Activity result with Mus musculus was “Toxic”. Further, the result in the data set on Plasmodium berghei [2] was inactive.

With `N=C(N)/N=C(\N)SCc1ccc(OCc2cccc(Br)c2)cc1`, in the data set on Mus musculus, the Activity entry is given as “Toxic”. For the same molecule, the result in the data set on Plasmodium berghei [2] was inactive.

Turning to `N=C(N)/N=C(\N)SCCCOc1ccc(Cl)c(Cl)c1`, the MST in the data set with Plasmodium berghei [1] amounted to 24 days.

In the case of `N#Cc1ccc(CS/C(N)=N/C(=N)N)cc1`, the outcome in the data set on Plasmodium berghei [2] was inactive.

`N=C(N)/N=C(\N)SCc1ccccc1[N+](=O)[O-]`: the Activity result with Mus musculus was “Toxic”. Further, the result with Plasmodium berghei [2] was inactive.

Consider `N=C(N)NC(=N)SCc1cccc([N+](=O)[O-])c1`, for which the Activity entry in the data set on Mus musculus is “Toxic”. The result in the data set on Plasmodium berghei [2] was inactive.

For the molecule `N=C(N)/N=C(\N)SCc1ccccc1C(F)(F)F`, the Activity entry in the data set with Mus musculus is listed as “Toxic”. The result with Plasmodium berghei [2] was inactive.

In the case of `Cc1ccc(CSC(=N)N=C(N)N)cc1`, the Activity result in the data set on Mus musculus is recorded as “Toxic”. Further, in the data set on Plasmodium berghei [2], the outcome was inactive.

Take `N=C(N)/N=C(\N)SCCOc1cccc(Br)c1`: the MST with Plasmodium berghei [1] was found to be 25 days.
